ChEMBL document CHEMBL1126757, “Benzoquinazoline inhibitors of thymidylate synthase: enzyme inhibitory activity and cytotoxicity of some 3-amino- and 3-methylbenzo[f]quinazolin-1(2H)-ones” (J Med Chem, 1993)

Legend:
Thymidylate synthase [1] = molecular target: Thymidylate synthase (Escherichia coli, UniProt C3SWJ7); experiment: Inhibition against thymidylate synthase (TS) in Escherichia coli; details: read-out: I50
SW480 = experiment: cells; details: Homo sapiens
Thymidylate synthase [2] = molecular target: Thymidylate synthase (Homo sapiens, UniProt P04818)
Sequence of Thymidylate synthase (Homo sapiens, UniProt P04818) (P04818 whole entry): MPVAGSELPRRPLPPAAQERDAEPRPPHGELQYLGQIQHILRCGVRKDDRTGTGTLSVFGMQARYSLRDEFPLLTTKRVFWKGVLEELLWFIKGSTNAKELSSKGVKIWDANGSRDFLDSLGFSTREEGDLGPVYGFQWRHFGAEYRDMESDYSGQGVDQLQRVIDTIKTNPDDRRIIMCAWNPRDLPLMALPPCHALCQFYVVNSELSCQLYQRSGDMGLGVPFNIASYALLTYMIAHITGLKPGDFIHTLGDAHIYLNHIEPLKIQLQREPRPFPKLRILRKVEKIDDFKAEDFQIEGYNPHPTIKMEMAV

Sequence of Thymidylate synthase (Escherichia coli, UniProt C3SWJ7) (C3SWJ7 whole entry): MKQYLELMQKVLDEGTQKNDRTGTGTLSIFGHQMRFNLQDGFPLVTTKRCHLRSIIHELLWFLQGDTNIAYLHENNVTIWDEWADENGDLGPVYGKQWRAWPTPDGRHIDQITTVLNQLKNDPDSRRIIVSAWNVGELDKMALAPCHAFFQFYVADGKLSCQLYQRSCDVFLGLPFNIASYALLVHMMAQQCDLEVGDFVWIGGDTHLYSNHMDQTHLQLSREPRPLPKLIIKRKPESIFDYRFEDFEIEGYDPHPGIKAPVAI

Row | Compound | IC50 (Thymidylate synthase [1]) | IC50 (SW480) | IC50 (Thymidylate synthase [2])
1 | Nc1nc2c(c(=O)[nH]1)-c1ccc(Cl)cc1CC2 | 334 µM | – | –
2 | Nc1nc2ccc3ccc(O)cc3c2c(=O)[nH]1 | 1.84 µM | 40 µM | 0.48 µM
3 | Nc1ccc2c(c1)-c1c(nc(N)[nH]c1=O)CC2 | 16.9 µM | > 100 µM | 13.5 µM
4 | Nc1nc(O)c2c(ccc3ccc(Br)c([N+](=O)[O-])c32)n1 | – | 20 µM | 0.23 µM
5 | Nc1nc(O)c2c(ccc3cc(Br)c([N+](=O)[O-])cc32)n1 | 28 µM | – | –
6 | Cc1nc2c(c(=O)[nH]1)-c1cccc(Cl)c1CC2 | – | > 100 µM | 193 µM
7 | COc1ccc2c(c1)-c1c(O)nc(N)nc1CC2 | 6 µM | 25 µM | 3.6 µM
8 | Cc1nc(O)c2c(ccc3c(Cl)cccc32)n1 | – | 50 µM | –
9 | Nc1nc(O)c2c(n1)CCc1ccc(F)cc1-2 | 4 µM | 80 µM | –
10 | Nc1nc2ccc3c([N+](=O)[O-])c(Br)ccc3c2c(=O)[nH]1 | 104 µM | – | –
11 | Cc1nc(O)c2c(ccc3ccc(Cl)cc32)n1 | – | 10 µM | –
12 | Nc1nc2c(c(=O)[nH]1)-c1cc(Br)c([N+](=O)[O-])cc1CC2 | 97.5 µM | 12 µM | –
13 | Nc1nc(O)c2c(cc(CO)c3ccccc32)n1 | 102 µM | > 100 µM | 8.6 µM
14 | C=Cc1ccc2ccc3nc(N)nc(O)c3c2c1 | 1.1 µM | 6 µM | 0.12 µM
15 | CCOc1ccc2ccc3nc(N)nc(O)c3c2c1 | – | 20 µM | 4.2 µM
16 | COc1cccc2c1CCc1nc(N)nc(O)c1-2 | 250 µM | – | –
17 | Nc1nc(O)c2c(n1)CCc1ccccc1-2 | 7 µM | > 100 µM | –
18 | CC1Cc2nc(N)nc(O)c2-c2ccccc21 (centres undefined) | 23 µM | – | –
19 | CCc1ccc2ccc3nc(N)nc(O)c3c2c1 | 7.7 µM | 20 µM | 0.49 µM
20 | Nc1nc2ccc3cccc([N+](=O)[O-])c3c2c(=O)[nH]1 | 9.8 µM | > 100 µM | 2.31 µM
21 | Nc1nc(O)c2c(ccc3ccc(I)cc32)n1 | 0.323 µM | 5 µM | 0.022 µM
22 | CCSc1ccc2ccc3nc(N)nc(O)c3c2c1 | 4.3 µM | – | 3.28 µM
23 | COc1ccc2c(c1)CCc1nc(N)nc(O)c1-2 | 240 µM | – | –
24 | Nc1nc2c(c(=O)[nH]1)-c1cc(Cl)ccc1CC2 | 1.6 µM | 25 µM | –
25 | Nc1nc2ccc3ccccc3c2c(=O)[nH]1 | 7 µM | 52 µM | 1.08 µM
26 | Cc1nc(O)c2c(ccc3c(Br)cccc32)n1 | – | 50 µM | –
27 | Nc1nc2ccc3cc(Cl)c(Cl)cc3c2c(=O)[nH]1 | 5.4 µM | 20 µM | 0.71 µM

Row | Compound | IC50 (Thymidylate synthase [1]) | IC50 (SW480) | IC50 (Thymidylate synthase [2])
28 | Cc1cc2nc(N)[nH]c(=O)c2c2ccccc12 | 1 µM | – | –
29 | Nc1nc2ccc3cc(Cl)ccc3c2c(=O)[nH]1 | – | – | 45.4 µM
30 | Nc1nc2c(c(=O)[nH]1)-c1cccc(Br)c1CC2 | 109 µM | – | –
31 | Nc1nc2ccc3cc([N+](=O)[O-])cc([N+](=O)[O-])c3c2c(=O)[nH]1 | 104 µM | – | 145 µM
32 | Nc1nc(O)c2c(ccc3ccc(Br)cc32)n1 | 0.267 µM | 10 µM | 0.022 µM
33 | Cc1nc(O)c2c(n1)CCc1ccc(F)cc1-2 | 32.8 µM | > 100 µM | –
34 | Nc1nc(O)c2c(ccc3cc(F)cc(N)c32)n1 | 47.1 µM | 70 µM | 73.8 µM
35 | C#Cc1ccc2ccc3nc(N)nc(O)c3c2c1 | 14 µM | 20 µM | 0.6 µM
36 | Nc1nc2c(c(=O)[nH]1)-c1cc(Br)c(N)cc1CC2 | 2.9 µM | 15 µM | –
37 | Cc1cccc2c1CCc1nc(N)[nH]c(=O)c1-2 | 59 µM | – | –
38 | Cc1ccc2ccc3nc(N)nc(O)c3c2c1 | 1.47 µM | 30 µM | 0.178 µM
39 | CCSc1ccc2c(c1)-c1c(nc(N)[nH]c1=O)CC2 | 31.7 µM | 40 µM | –
40 | Nc1nc(O)c2c(n1)CCc1ccc(I)cc1-2 | 5 µM | 15 µM | –
41 | Nc1nc2c(c(=O)[nH]1)-c1ccc(F)cc1CC2 | 750 µM | 80 µM | –
42 | Nc1nc2ccc3cc(F)ccc3c2c(=O)[nH]1 | 231 µM | 50 µM | 44 µM
43 | Cc1nc(O)c2c(ccc3ccc(Br)cc32)n1 | 6.9 µM | 6 µM | –
44 | Nc1nc2ccc3cc(F)cc([N+](=O)[O-])c3c2c(=O)[nH]1 | – | – | 34.5 µM
45 | Nc1cc(N)c2c(ccc3nc(N)nc(O)c32)c1 | 5.12 µM | > 100 µM | 7.8 µM
46 | Cc1cc2nc(N)nc(O)c2c2cc(Cl)ccc12 | 0.17 µM | 2 µM | 0.02 µM
47 | Nc1nc2ccc3cc([N+](=O)[O-])c(Br)cc3c2c(=O)[nH]1 | 31 µM | 2.5 µM | 3.12 µM
48 | Nc1nc(O)c2c(ccc3ccc(Br)c(N)c32)n1 | 0.64 µM | 30 µM | 0.36 µM
49 | COCc1cc2nc(N)nc(O)c2c2ccccc12 | – | 60 µM | 15 µM
50 | Nc1nc2ccc3c(Br)cccc3c2c(=O)[nH]1 | – | – | 8.9 µM
51 | Nc1nc(O)c2c(n1)CCc1cc([N+](=O)[O-])ccc1-2 | 43 µM | – | –
52 | Nc1nc2ccc3c(Br)c(N)c(Br)cc3c2c(=O)[nH]1 | 25 µM | – | –
53 | Nc1nc2ccc3c(Cl)cccc3c2c(=O)[nH]1 | – | – | 26 µM
54 | CSc1ccc2c(c1)-c1c(nc(N)[nH]c1=O)CC2 | 1.2 µM | 60 µM | –

Row | Compound | IC50 (Thymidylate synthase [1]) | IC50 (SW480) | IC50 (Thymidylate synthase [2])
55 | Nc1ccc2c(c1)CCc1nc(N)[nH]c(=O)c1-2 | 89 µM | – | –
56 | Cc1nc2c(c(=O)[nH]1)-c1ccccc1CC2 | 119 µM | > 100 µM | –
57 | CC1(C)Cc2nc(N)nc(O)c2-c2ccccc21 | 49.6 µM | – | 43.9 µM
58 | Cc1nc2c(c(=O)[nH]1)-c1cc(Br)ccc1CC2 | 8.69 µM | 65 µM | –
59 | Nc1nc(O)c2c(ccc3cc(N)c(Br)cc32)n1 | 2.8 µM | 15 µM | 0.34 µM
60 | C#Cc1ccc2c(c1)-c1c(nc(N)[nH]c1=O)CC2 | 26.3 µM | 35 µM | –
61 | Nc1nc(O)c2c(ccc3c([N+](=O)[O-])c(F)ccc32)n1 | 403 µM | 30 µM | 552 µM
62 | Nc1nc2c(c(=O)[nH]1)-c1cc(O)ccc1CC2 | 12 µM | > 100 µM | 8.4 µM
63 | CSc1ccc2ccc3nc(N)nc(O)c3c2c1 | 1.6 µM | – | 0.46 µM
64 | Nc1nc2ccc3ccc(Cl)cc3c2c(=O)[nH]1 | 0.52 µM | 3 µM | 0.025 µM
65 | Nc1nc2ccc3c(I)cccc3c2c(=O)[nH]1 | 6.3 µM | 10 µM | 1.31 µM
66 | Cc1nc(O)c2c(ccc3c(I)cccc32)n1 | – | 50 µM | –
67 | Nc1nc(O)c2c(ccc3c(N)cccc32)n1 | 39 µM | > 100 µM | 15.2 µM
68 | Nc1nc2c(c(=O)[nH]1)-c1cccc(F)c1CC2 | 99 µM | > 100 µM | 83.6 µM
69 | O=CNc1nc(O)c2c(ccc3ccc(Br)cc32)n1 | – | 7 µM | 0.54 µM
70 | Cc1cccc2c1ccc1nc(N)nc(O)c12 | 18.1 µM | 35 µM | 7.5 µM
71 | Nc1nc(O)c2c(n1)CCc1ccc(Br)cc1-2 | 2 µM | 25 µM | –
72 | Nc1nc(O)c2c(ccc3ccc(F)cc32)n1 | 2.4 µM | 10 µM | 0.5 µM
73 | CC1Cc2nc(N)nc(O)c2-c2cc(Cl)ccc21 (centres undefined) | 3.6 µM | – | 0.37 µM
74 | Cc1ccc2c(c1)-c1c(O)nc(N)nc1CC2 | 5.8 µM | > 100 µM | 0.72 µM
75 | Oc1nc(NCc2ccccc2)nc2ccc3ccc(Cl)cc3c12 | – | 12 µM | –
76 | Nc1ccc2c(ccc3nc(N)nc(O)c32)c1 | – | 100 µM | 7.5 µM
77 | Nc1nc2ccc3c(N)c(Br)ccc3c2c(=O)[nH]1 | – | 20 µM | 16.8 µM
78 | Cc1cc2nc(N)[nH]c(=O)c2c2ccc(Cl)cc12 | – | – | 6.9 µM
79 | Cc1cc(C)c2ccc3nc(N)[nH]c(=O)c3c2c1 | 5 µM | – | –
